Reference: patent US20220040183A1, “USE OF INHIBITORS OF STRESS GRANULE FORMATION FOR TARGETING THE REGULATION OF IMMUNE RESPONSES” (INSERM (Institut National de la Santé et de la Recherche …, priority 2018, published 2022)

Test system: PD-1, LAG3 and TIM3 expression by CD3+ T cells
Test: Cell-based assay of immune checkpoint expression by T lymphocytes (flow cytometry)
Design: species or system human
Conditions: for PD-1, LAG3 and TIM3 expression by CD3+ T cells: PBMC activated with CD3/CD28 antibodies-coated beads, stimulated for 3 days, FIG. 4; for co-expression profile of PD-1, LAG3 and TIM3 immune checkpoint receptors on activated CD3+ T cells: healthy donors PBMC, FIG. 5, representative of n=6
From the text: PBMC were obtained from human healthy donors (Etablissement Français du Sang, Toulouse, France) after Ficoll-Hypaque (GE Healthcare) density centrifugation and cultured in RPMI 1640 medium (ThermoFisher Scientific) supplemented with 10% fetal bovine serum (ThermoFisher Scientific) and L-glutamine (SIGMA Aldrich).
Cell-Based Assay of Immune Checkpoint Expression by T Lymphocytes.
PBMC isolated from healthy donors were activated with CD3/CD28 antibodies-coated beads (ThermoFisher Scientific). When drugs were used (A-92 (1 μM) or GSK2606414 (GSK, 10 μM)), they were added simultaneously to the stimulation. After 3 days of in vitro culture, cells were processed for qRT-PCR, immunoblotting or flow cytometry analysis.

Row | SMILES | PD-1, LAG3 and TIM3 expression by CD3+ T cells (A-92 1 μM) | co-expression profile of PD-1, LAG3 and TIM3 immune checkpoint receptors on activated CD3+ T cells (A-92 1 μM) | PD-1, LAG3 and TIM3 expression by CD3+ T cells (GSK2606414 10 μM) | co-expression profile of PD-1, LAG3 and TIM3 immune checkpoint receptors on activated CD3+ T cells (GSK2606414 10 μM)
1 | c1nn(C2CCOCC2)cc1Nc1ncc2nnn(-c3ccc4cn[nH]c4c3)c2n1 [A-92, 3-(1H-indazol-6-yl)-N-[1-(oxan-4-yl)pyrazol-4-yl]triazolo[4,5-d]pyrimidin-5-amine] | impair immune checkpoints expression | impair immune checkpoints expression simultaneously | – | –
2 | Cn1cc(-c2ccc3c(c2)CCN3C(=O)Cc2cccc(C(F)(F)F)c2)c2c(N)ncnc21 [GSK2606414, 1-[5-(4-amino-7-methylpyrrolo[2,3-d]pyrimidin-5-yl)-2,3-dihydroindol-1-yl]-2-[3-(trifluoromethyl)phenyl]ethanone] | – | – | impair immune checkpoints expression | impair immune checkpoints expression simultaneously
